Data from patent US5441950A, “Substituted dibenzoxazepine and dibenzthiazepine carbamate compounds, pharmaceutical compositions and methods of use” (G. D. Searle & Co., priority 1994, dated 1995).
Counter-ions that a name gives are not always drawn. Like-named read-outs stand apart in the source and are kept apart here.

Experiments:
[1] = test system: mice; test: Writhing Assay (PBQ-induced writhing, analgesia, intragastric); format: in vivo, mouse (Charles River male albino mice); settings: for responders at 30 mg/kg: ip, 0.5 h, read-out: WRITHING ASSAY, number of mice out of nine or ten in which the test compound produced analgesia
Description: The Writhing Assay is one of the most widely-used experimental procedures for measuring the analgesic activity of different narcotic and nonnarcotic analgesic agents, and involves the continuous, chemically-induced pain of visceral origin to an animal, such as a mouse or rat. [Gyires et al., Arch. int. […] Chemicals which may be used to induce this pain include phenylbenzoquinone (PBQ) and acetic acid. As a result of the chemical irritation to the animal, a characteristic stretching and writhing of the animal (dorsiflexion of the animal's back, extension of its hindlimbs and the strong contraction of its abdominal musculature) will generally occur. […] Drugs which reduce the number of writhes of the animal appear to restore the normal nociceptive threshold of the animal. […] Charles River male albino mice, weighing 20 to 30 grams, were used in this assay. […] Ten mice which were given saline in place of a test compound of the invention were used as a control group. Five minutes later, each mouse was individually placed into a glass beaker for observation, and the number of writhes occurring during the following ten-minute period was counted. […] The standard initial screening dose of a test compound employed in this assay was 30 mpk […].

[2] = molecular target: T1, prostaglandin E2 -induced contractions of segments of guinea pig ileum (Cavia porcellus, UniProt A0A286XHJ6); test: Prostaglandin (PGE) Antagonism Assay (prostaglandin E2-induced contractions of guinea pig ileum segments); settings: for PGE in guinea pig ileum, dose ratio: dose ratio of prostaglandin E2 EC50 doses, initial test concentration 3 micromolar
T1 construct: The ilea were then quickly removed from the guinea pigs; from tissue; host or cells: guinea pig ileum segments (male albino guinea pigs)
T1 sequence (A0A286XHJ6 1-405): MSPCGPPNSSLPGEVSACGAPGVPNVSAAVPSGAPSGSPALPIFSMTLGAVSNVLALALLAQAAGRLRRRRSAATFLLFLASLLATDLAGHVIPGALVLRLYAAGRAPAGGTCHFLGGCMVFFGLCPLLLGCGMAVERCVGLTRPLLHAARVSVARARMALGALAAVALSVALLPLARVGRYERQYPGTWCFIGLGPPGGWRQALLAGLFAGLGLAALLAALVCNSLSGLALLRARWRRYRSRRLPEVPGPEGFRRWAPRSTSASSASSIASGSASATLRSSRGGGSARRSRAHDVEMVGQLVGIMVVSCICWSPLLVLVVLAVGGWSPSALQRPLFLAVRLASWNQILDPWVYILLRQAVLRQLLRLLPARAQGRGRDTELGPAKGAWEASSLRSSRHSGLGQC
Description: The ilea were then quickly removed from the guinea pigs and placed in a modified Tyrode solution, a solution which is known to those skilled in the art, containing one-half of the usual amount of magnesium ions. […] Data for a control prostaglandin E2 dose response curve plotting concentration of prostaglandin E2 versus the intensity of contractions, detected isotonically, was then obtained by experimentally adjusting the dose of the prostaglandin E2 being injected into the tissue bath, in a manner known by those of skill in the art. Solutions or suspensions containing an initial concentration (3 micromolar) of a test compound in modified Tyrode solution ("test solutions/suspensions") were then separately substituted for the control bath solution. Each test solution/suspension was then kept in constant contact with the ileum tissue, except for brief periods to drain the bath in preparation for rinsing with fresh test solution/suspension. A second prostaglandin E2 dose response curve was then generated for prostaglandin E2 in the presence of a test compound. A dose ratio of EC50 doses was then calculated from the results of each test in a manner known by those of skill in the art.

[3] = Mus musculus, 30 mg per kilogram, I.G., 30 min before PBQ i.p., writhes <= one-half the control median

Row | PGE in guinea pig ileum, dose ratio [2] | Structure (SMILES) | responders at 30 mg/kg [1, 3] | further results
1 |  | O=C(CNC(=O)N1Cc2ccccc2Oc2ccc(Cl)cc21)NCc1ccncc1 [Example 6, 8-chloro-N-[[[(4-pyridinylmethyl)amino]carbonyl]methyl]-10(11H)-dibenz[b,f][1,4]oxazepinecarboxamide, hydrochloride] | 60% | Kb ([2]; Schild plot, prostaglandin E2-induced contractions, read-out: PGE in guinea pig ileum, pA2 (converted)): 955 nM
2 | 11.02 | Cl.O=C(CNC(=O)N1Cc2ccccc2Oc2ccc(Cl)cc21)NCCc1ccccn1 [Example 8, 8-chloro-N-[[[[2-(2-pyridinyl)ethyl]amino]carbonyl]methyl]-10(11H) dibenz[b,f][1,4]oxazepinecarboxamide hydrochloride] | 30% | 
3 | 2.63 | O=C(OCCCc1ccncc1)N1Cc2ccccc2Oc2ccc(Cl)cc21 [Example 10, 3-(4-pyridinyl)propyl 8-chloro-10(11H)dibenz[b,f][1,4]oxazepinecarboxylate,monohydrochloride] | 30% | 
4 |  | CN(C)Cc1ccc(COC(=O)N2Cc3ccccc3Oc3ccc(Cl)cc32)o1 [Example 12, [2-(dimethylaminomethyl)furan-5-yl]methyl-8-chlorodibenz[b,f][1,4]oxazepine-10(11H)carboxylate, monohydrochloride] | 20% | 
5 | 25.03 | O=C(OCCCNCc1ccncc1)N1Cc2ccccc2Oc2ccc(Cl)cc21 [Example 14, 3-[[(4-pyridinyl)methyl]amino]propyl-8-chlorodibenz[b, f][1,4]oxazepine-10(11H)carboxylate, hydrochloride] | 50% | 
6 | 1.70 | O=C(CNC(=O)N1Cc2ccccc2Oc2ccc(Cl)cc21)Nc1ccncc1 [Example 16, 8-chloro-N-[[[(4-pyridinyl)amino]carbonyl]methyl]dibenz[b,f][1,4]oxazepine-10(11H)carboxamide, monohydrochloride] | 80% | 
7 | 2.6 | CC(C)(CNC(=O)OCc1ccccc1)NC(=O)N1Cc2ccccc2Oc2ccc(Cl)cc21 [Example 18, phenylmethyl N-[2-[[(8-chlorodibenz[b,f][1,4]oxazepine-10(11H)-yl]carbonyl]amino]-2-methylpropyl]carbamate] | 40% | 
8 | 7.9 | O=C(NCCCCc1ccncc1)N1Cc2ccccc2Oc2ccc(Cl)cc21 [Example 24, 8-chloro-N-[4-(4-pyridinyl)butyl]dibenz[b,f][1,4]oxazepine-10(11H)-carboxamide] | 60% | 
9 | 2.0 | CC(C)(CNC(=O)c1ccncc1)NC(=O)N1Cc2ccccc2Oc2ccc(Cl)cc21 [Example 28, 8-chloro-N-[2-[[(4-pyridinyl)carbonyl]amino-1,1-dimethylethyl]dibenz[b,f][1,4]oxazepine-10(11H)carboxamide, hydrochloride hydrate] | 20% | 
10 |  | CCN(CC)CCCCCOC(=O)N1Cc2ccccc2Oc2ccc(Cl)cc21 [Example 29, 5-(diethylamino)pentyl 8-chlorodibenz[b,f][1,4]oxazepine-10(11H)-carboxylate] | 70% | potency in the Writhing Assay (in words) ([1]; mice, I.G.): most potent compound of the invention tested in this assay
11 | 1.4 | COC(=O)[C@@H](C)NC(=O)N1Cc2ccccc2Oc2ccc(Cl)cc21 [Example 31, methyl (D)-2R-[[(8-chlorodibenz[b,f][1,4]oxazepine-10(11H)-yl)carbonyl]amino]propanoate] | 80% | 
12 | 3.5 | COC(=O)[C@H](C)NC(=O)N1Cc2ccccc2Oc2ccc(Cl)cc21 [Example 32, methyl (L)-2R-[[(8-chlorodibenz[b,f][1,4]oxazepine-10-(11H)-yl)carbonyl]amino]propanoate] |  | ED50 ([1]; Mus musculus, po, I.G., mice, PBQ, read-out: WRITHING ASSAY, ED50 Dose): 7.2 mg/kg
13 | 2.0 | C[C@@H](NC(=O)N1Cc2ccccc2Oc2ccc(Cl)cc21)C(=O)O [Example 33, (D)-2R-[[(8-chlorodibenz[b,f][1,4]oxazepine-10(11H)yl)carbonyl]amino]propanoic acid] | 60% | 
14 | 1.7 | C[C@H](NC(=O)N1Cc2ccccc2Oc2ccc(Cl)cc21)C(=O)O [Example 34, (L)-2S-[[(8-chlorodibenz[b,f][1,4]oxazepine-10(11H)yl)carbonyl]amino]propanoic acid] | 20% | 
15 | 0.3 | O=C(OCc1ccccc1)N1Cc2ccccc2Oc2ccc(Cl)cc21 [Example 43, phenylmethyl 8-chlorodibenz[b,f][1,4]oxazepine-10(11H)-carboxylate] |  | 
16 | 365 | O=C(OCc1ccncc1)N1Cc2ccccc2Oc2ccc(Cl)cc21 [Example 44, (4-pyridinyl)methyl 8-chlorodibenz[b,f][1,4]oxazepine-10(11H)-carboxylate] |  | 
17 | 1.0 | O=C(NCc1ccncc1)N1Cc2ccccc2Oc2ccc(Cl)cc21 [Example 45, 8-chloro-N-(4-pyridinylmethyl)dibenz[b,f][1,4]oxazepine-10(11H)carboxamide,monohydrochloride] | 60% | 
18 | 2.7 | O=C(NCc1cccnc1)N1Cc2ccccc2Oc2ccc(Cl)cc21 [Example 46, 8-chloro-N-(3-pyridinylmethyl)dibenz[b,f]oxazepine-10(11H)-carboxamide, monohydrochloride] | 40% | 
19 |  | O=C(NCc1ccccn1)N1Cc2ccccc2Oc2ccc(Cl)cc21 [Example 47, 8-chloro-N-(2-pyridinylmethyl)dibenz[b,f][1,4]oxazepine-10(11H)-carboxamide, monohydrochloride] | 80% | 

Row | Structure (SMILES) | PGE in guinea pig ileum, dose ratio [2] | responders at 30 mg/kg [1, 3] | further results
20 | O.O=C(NCc1nn[nH]n1)N1Cc2ccccc2Oc2ccc(Cl)cc21.[Na] [Example 20, 8-chloro-N-[(2H-tetrazol-5-yl)methyl]dibenz[b,f][1,4]oxazepine-10(11H)-carboxamide, sodium salt, hydrate] | 1.80 |  | responders at 30 mg/kg ([1]; Mus musculus): 20%
